Laboratory results from paper PMC10845954, “Novel antimicrobial peptides identified in legume plant, Medicago truncatula” (Microbiology Spectrum, 2024).
Where a SMILES comes first, the peptide text is derived from it.

Test system: leukemia (K562) cell line
Experiment: Cell viability (MTT assay)
Assay type: cell-based, human
Conditions: 100 µM, 24 hrs exposure, absorbance 540 nm, cutoff 20%, mean of four independent experiments
Protocol: Dulbecco’s modified Eagle medium (DMEM) supplemented with 10% fetal bovine serum (FBS) and 1% penicillin (10.000 IU/mL)/streptomycin (50 mg/mL) was used to grow the […] human leukemia cell line (K562) in flasks at 37°C in a humidified environment of 5% CO2/air.
K562 cells were cultivated in DMEM with FBS 10% and penicillin–streptomycin 1%, and they were incubated at 37°C with 5% CO2 present. Using the MTT assay, the cytotoxicity of the three NCRs was evaluated. K562 cells were grown at a density of 3–4 × 10^4 cells per well in a 96-well plate and allowed to adhere for 24 hrs. […] Using a microplate reader, absorbance was measured at 540 nm. […]
Fig 7 The toxicity % of the NCRs (NCR094 and NCR992) toward leukemia cell line (K562). […] Absorbance was read at 540, and the toxicity% was calculated from four independent experiments, and the results were represented as average of the % toxicity and standard deviations from four independent experiments. […]
The cells were treated with were treated with 10-fold concentration (100, 10, 1, 0 μM) of NCR992.1 After 24 hrs exposure, MTT were added, and cells were incubated for 4 hrs. […] Absorbance was read at 540 and the toxicity% were calculated and the results were presented as means and error bars were ± SD values from four independent experiments.

CC[C@H](C)[C@H](NC(=O)[C@H](CCSC)NC(=O)CNC(=O)[C@H](Cc1ccccc1)NC(=O)[C@H](CCC(=O)O)NC(=O)[C@H](CS)NC(=O)[C@@H](N)CCSC)C(=O)N[C@@H](CCCNC(=N)N)C(=O)N[C@@H](CCCNC(=N)N)C(=O)N[C@@H](CS)C(=O)N[C@H](C(=O)N[C@@H](CO)C(=O)N[C@@H](Cc1ccc(O)cc1)C(=O)N[C@@H](CCCCN)C(=O)N[C@@H](CS)C(=O)N[C@@H](CCC(N)=O)C(=O)N[C@@H](CS)C(=O)N[C@@H](Cc1c[nH]cn1)C(=O)N[C@@H](CCC(=O)O)C(=O)N[C@@H](C)C(=O)N[C@@H](Cc1ccc(O)cc1)C(=O)O)[C@@H](C)CC [NCR992] (H-MCEFGMIRRCISYKCQCHEAY-OH; N-terminus and C-terminus assumed)
toxicity % toward K562: 8.54%
